pIC50: −log10 of the molar value. Active and inactive are the calls of the source. The calls are words filed in the database; no cut-off is given here.
What was measured:
[1] = target: Clathrin heavy chain 1 (Homo sapiens) (UniProt Q00610); test: Inhibition of clathrin heavy chain 1 in human PC3 cells assessed as suppression of transferrin internalization at 30 uM pretreated for 15 mins followed by trasnferrin conjugate addition measured after 15 mins by laser scanning confocal microscopic analysis; type: cell-based
Sequence of Clathrin heavy chain 1 (Homo sapiens) (Q00610 whole entry): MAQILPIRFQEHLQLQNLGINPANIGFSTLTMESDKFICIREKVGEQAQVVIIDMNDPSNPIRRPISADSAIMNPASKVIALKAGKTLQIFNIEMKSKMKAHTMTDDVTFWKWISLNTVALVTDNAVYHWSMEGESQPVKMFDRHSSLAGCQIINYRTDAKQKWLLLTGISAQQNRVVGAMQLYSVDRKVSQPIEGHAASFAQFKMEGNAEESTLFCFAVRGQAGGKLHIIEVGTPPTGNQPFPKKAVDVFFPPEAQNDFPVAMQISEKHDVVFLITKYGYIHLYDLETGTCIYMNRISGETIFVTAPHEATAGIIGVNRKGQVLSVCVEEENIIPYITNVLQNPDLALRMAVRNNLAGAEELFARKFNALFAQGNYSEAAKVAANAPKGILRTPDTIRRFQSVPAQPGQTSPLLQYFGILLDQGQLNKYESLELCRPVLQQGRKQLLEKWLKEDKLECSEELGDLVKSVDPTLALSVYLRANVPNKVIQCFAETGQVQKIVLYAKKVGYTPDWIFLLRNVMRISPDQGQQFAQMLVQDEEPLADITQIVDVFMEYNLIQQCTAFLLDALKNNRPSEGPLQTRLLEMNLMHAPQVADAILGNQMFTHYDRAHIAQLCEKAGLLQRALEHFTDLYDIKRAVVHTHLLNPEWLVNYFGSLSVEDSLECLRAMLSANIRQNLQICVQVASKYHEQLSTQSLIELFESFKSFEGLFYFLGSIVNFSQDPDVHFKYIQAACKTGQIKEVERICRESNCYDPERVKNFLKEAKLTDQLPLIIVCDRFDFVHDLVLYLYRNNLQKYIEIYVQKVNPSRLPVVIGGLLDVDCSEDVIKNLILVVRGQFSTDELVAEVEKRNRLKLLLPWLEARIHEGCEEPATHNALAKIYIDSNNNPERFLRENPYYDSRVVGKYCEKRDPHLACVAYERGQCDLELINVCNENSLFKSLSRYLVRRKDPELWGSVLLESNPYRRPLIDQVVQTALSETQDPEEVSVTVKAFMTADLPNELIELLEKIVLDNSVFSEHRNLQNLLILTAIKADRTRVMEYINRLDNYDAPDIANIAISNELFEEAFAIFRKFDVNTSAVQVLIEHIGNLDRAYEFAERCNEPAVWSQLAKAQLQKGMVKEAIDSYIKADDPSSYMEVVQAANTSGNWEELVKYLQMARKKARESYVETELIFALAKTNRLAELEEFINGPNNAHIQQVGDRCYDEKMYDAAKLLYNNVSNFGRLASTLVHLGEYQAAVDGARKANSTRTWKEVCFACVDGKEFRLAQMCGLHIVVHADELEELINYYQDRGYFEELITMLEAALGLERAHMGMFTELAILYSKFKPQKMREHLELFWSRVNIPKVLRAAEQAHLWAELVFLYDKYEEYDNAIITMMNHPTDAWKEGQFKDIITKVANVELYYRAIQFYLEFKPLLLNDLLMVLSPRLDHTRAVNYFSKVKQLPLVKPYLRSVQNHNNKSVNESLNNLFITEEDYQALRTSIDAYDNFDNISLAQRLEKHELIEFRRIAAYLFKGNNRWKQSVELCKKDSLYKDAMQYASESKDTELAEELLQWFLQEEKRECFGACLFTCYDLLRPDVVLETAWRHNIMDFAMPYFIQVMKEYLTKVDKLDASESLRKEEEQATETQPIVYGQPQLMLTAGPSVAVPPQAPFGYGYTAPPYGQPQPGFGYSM

[2] = test system: MCF7; test: Antiproliferative activity against human MCF7 cells measured after 24 hrs by MTT assay; type: functional, cell-based; conditions: MCF7, 24 h
[3] = target: Clathrin heavy chain 1 (Homo sapiens) (UniProt Q00610); test: Modulation of clathrin heavy chain 1 in human PC3 cells assessed as effect on transferrin endocytosis at 5 to 25 uM pretreated for 15 mins followed by trasnferrin conjugate addition measured after 15 mins by laser scanning confocal microscopic analysis; type: cell-based
[4] = target: Clathrin heavy chain 1 (Homo sapiens) (UniProt Q00610); test: Binding affinity to clathrin heavy chain 1 in human PC3 cells at 20 to 40 uM measured after 2 hrs by DARTS assay; type: cell-based
[5] = test system: PC-3; test: Antiproliferative activity against human PC3 cells measured after 24 hrs by MTT assay; type: functional, cell-based; conditions: PC-3, 24 h
[6] = target: Clathrin heavy chain 1 (Homo sapiens) (UniProt Q00610); test: Binding affinity to clathrin heavy chain 1 in human MCF7 cells at 20 to 40 uM measured after 2 hrs by DARTS assay; type: cell-based

| inhibition [1] | pIC50 [2] | Activity [3] | Activity [4] | pIC50 [5] | Activity [6] | Structure (SMILES) |
| --- | --- | --- | --- | --- | --- | --- |
| Active | – | – | – | – | – | O=C1N=C(NS(=O)(=O)c2cccc3ccccc23)S/C1=C/c1ccc(Br)cc1 |
| – | 4.49 | Active | Active | 4.60 | Active | C/C1=C/C2=C(C(=O)[C@H](C)C2)C(=O)[C@@H](C)C[C@@H]2[C@H](CC1)[C@@]2(C)CO[C@@H]1O[C@H](CO)[C@@H](O)[C@H](O)[C@H]1O |
